Where only a bound is given, the exact number is not on record here.

By IC50 is commonly meant the point on the concentration scale where inhibition reaches its midpoint.

One experiment addresses T1, IRAK1 (Homo sapiens, UniProt P51617).
T1 construct: purchased Reaction Biology (RBC), HotSpot kinase assay
Kind of experiment: RBC HotSpot Kinase Assay, IRAK1. In kind it is biochemical. To be noted: isolated kinase, 33P-ATP. An outline of the steps: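 Isolated recombinant kinase (possibly truncated or catalytic-domain form) was preincubated with compound for 20 min at room temp in 20 mM Hepes pH 7.5, 10 mM MgCl2, 1 mM EGTA, 0.01% Brij35, 1% DMSO with substrate; 33P-ATP started a 2 h room-temperature reaction, read by P81 filter binding.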

A further experiment concerns the target T2, IRAK4 (Homo sapiens, UniProt Q9NWZ3).
T2 sequence (Q9NWZ3 1-460): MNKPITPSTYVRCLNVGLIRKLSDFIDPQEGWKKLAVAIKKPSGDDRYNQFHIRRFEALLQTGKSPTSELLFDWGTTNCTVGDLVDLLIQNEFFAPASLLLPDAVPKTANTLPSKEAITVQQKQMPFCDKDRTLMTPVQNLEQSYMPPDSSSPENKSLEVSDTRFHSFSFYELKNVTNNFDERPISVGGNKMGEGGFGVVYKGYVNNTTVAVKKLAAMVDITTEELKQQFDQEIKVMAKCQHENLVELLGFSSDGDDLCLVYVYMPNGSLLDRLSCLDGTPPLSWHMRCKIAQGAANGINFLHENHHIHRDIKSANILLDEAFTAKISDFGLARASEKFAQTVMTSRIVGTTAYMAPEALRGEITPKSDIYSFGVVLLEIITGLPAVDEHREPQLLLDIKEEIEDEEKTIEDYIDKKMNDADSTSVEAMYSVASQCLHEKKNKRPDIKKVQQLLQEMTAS
Briefly: Reaction Biology NanoBRET target engagement assay, IRAK4. In kind it is cell-based. Particulars: transfected HEK-293 cells. The text has this: The NanoBRET assay measures kinase engagement in real time in the context of the intact cell. Unlike the previously described biochemical kinase assay methodologies in Examples 26-27, the NanoBRET assay measures the binding and activity characteristics under equilibrium conditions using full-length kinases in the presence of cellular concentrations of ATP in live, uncompromised cells. As such, the assay provides a more relevant assessment of kinase potency and selectivity that would be expected to be observed in the native cellular environment, where potency is often considerably lower than that observed in the isolated biochemical assays (Vasta, J. D. et al., (2018) Cell Chem. Biol. 25, 206-214). The assay uses a Kinase-NanoLuc® fusion vector expressing a kinase protein to which a luciferase tag has been added, a cell-permeant fluorescent NanoBRET™ tracer, a NanoLuc® substrate, and an extracellular NanoLuc® inhibitor. Upon expression of the luciferase-tagged kinase, cells will produce a strong BRET signal only in the presence of the NanoBRET™ tracer. The extracellular NanoLuc® inhibitor ensures that the BRET signal observed emanates only from live cells. Because the BRET signal has tight distance constraints, addition of the test compound will decrease the BRET signal if the compound competes with the NanoBRET™ tracer for binding to the kinase domain. Under the appropriate tracer conditions established by the manufacturer, quantitative intracellular affinity and relative potency can then be determined using Mass Action model equations.
HEK-293 cells were purchased from ATCC. FuGENEHD Transfection Reagent, Kinase-NanoLucfusion plasmids, Transfection Carrier DNA, NanoBRETTracers and dilution buffer, NanoBRETNano-Glo Substrate, Extracellular NanoLucInhibitor were obtained from Promega.
Assays were conducted following Promega assay protocol with some modifications. HEK-293 Cells were transiently transfected with Kinase-NanoLucFusion Vector DNA by FuGENEHD Transfection Reagent. Testing compounds were delivered into 384 well assay plate by Echo 550 (Labcytelnc, Sunnyvale, CA). Transfected cells were harvested and mixed with NanoBRETTracer Reagent and dispensed into 384 well plates and incubated at 37° C. in 5% CO2 cell culture incubator for 1 hour. The NanoBRETNano-Glo Substrate plus Extracellular NanoLucInhibitor Solution were added into the wells of the assay plate and incubated for 2-3 minutes at room temperature. The donor emission wavelength (460 nm) and acceptor emission wavelength (600 nm) were measured in the EnVisionplate reader. The BRET Ratios were calculated. BRET Ratio=[(Acceptor sample÷Donor sample)−(Acceptor no-tracer control÷Donor no-tracer control)]. The IC50 values of compounds were calculated with Prism GraphPad program.
NanoBRET™ Target Engagement Assay Protocol
1. Transient Transfection of HEK-293 Cells NanoLuc® Fusion Vector DNA
• 1). Cultivate HEK-293 cells (70-80% confluence) appropriately prior to assay. Trypsinize and collect HEK-293 cells. • 2). Prepare lipid: DNA complexes as follows: • a. Prepare a […] solution of DNA in Opti-MEM without serum that consists of the following ratios of carrier DNA and DNA encoding NanoLuc® fusion. 9.0 µg/mL of Transfection Carrier DNA, […] of NanoLuc fusion vector DNA and 1 mL of Opti-MEM without phenol red. Mix thoroughly. • b. Add 30 l of FuGENE HD Transfection Reagent into each milliliter of DNA mixture to form lipid: DNA complex. • c. Mix by inversion 10 times. • d. Incubate at ambient temperature for 20 minutes to allow complexes to form. • 3). In a sterile, conical tube, mix 1 part of lipid: DNA complex with 20 parts of HEK-293 cells in suspension. Mix gently by inversion 5 times. • 4). Dispense cells+lipid: DNA complex into a sterile tissue culture dish and incubate for 22-24 hours. 2. Addition of Test Compounds (dry plate shooting)
Each test compound is delivered from the compound source plate to the wells of 384-well white NBS plate by Echo 550.
3. […]
(BRET reads energy transfer from a luciferase to a nearby fluorophore.)

T1 sequence (P51617 whole entry): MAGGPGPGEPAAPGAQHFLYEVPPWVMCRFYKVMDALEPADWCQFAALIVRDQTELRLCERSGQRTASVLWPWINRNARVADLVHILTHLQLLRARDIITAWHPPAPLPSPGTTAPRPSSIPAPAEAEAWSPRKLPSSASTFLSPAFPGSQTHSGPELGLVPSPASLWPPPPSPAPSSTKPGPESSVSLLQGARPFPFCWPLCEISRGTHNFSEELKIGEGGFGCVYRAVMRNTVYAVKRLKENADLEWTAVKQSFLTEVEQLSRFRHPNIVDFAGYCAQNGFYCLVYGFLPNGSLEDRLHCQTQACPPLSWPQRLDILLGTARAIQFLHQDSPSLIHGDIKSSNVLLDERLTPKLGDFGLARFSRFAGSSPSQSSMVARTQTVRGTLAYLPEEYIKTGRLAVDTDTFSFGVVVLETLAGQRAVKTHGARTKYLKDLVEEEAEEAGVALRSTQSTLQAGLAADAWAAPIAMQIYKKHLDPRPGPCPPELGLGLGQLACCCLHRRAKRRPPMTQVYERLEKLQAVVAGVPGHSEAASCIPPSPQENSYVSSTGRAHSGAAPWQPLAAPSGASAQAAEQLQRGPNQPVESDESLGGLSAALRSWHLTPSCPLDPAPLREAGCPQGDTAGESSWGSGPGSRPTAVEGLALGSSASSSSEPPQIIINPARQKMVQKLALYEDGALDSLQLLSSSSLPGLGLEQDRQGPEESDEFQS

For the molecule `CC(O)(c1cn2c(-c3cccc(N[C@H]4CNC[C@@H]4F)n3)cnc2cn1)C(F)(F)F` (single isomer, unassigned) [Compound 77], the IC50 is 237 nM against IRAK1 and less than 0.5 nM at IRAK4. In the case of `CC(O)(c1cn2c(-c3cccc(N[C@H]4CNC[C@@H]4F)n3)cnc2cn1)C(F)(F)F` (single isomer, unassigned) [Compound 78], the IC50 against IRAK1 amounted to 66 nM. This lies in the double-digit nanomolar range. Consider `CC(O)(c1cn2c(-c3cccc(N[C@H]4CNCC[C@@H]4F)n3)cnc2cn1)C(F)(F)F` (single isomer, unassigned) [Compound 80], for which the IC50 was 64 nM at IRAK1 and less than 0.5 nM against IRAK4.

For `CC(O)(c1cn2c(-c3cccc(N[C@@H]4CCCNC4)n3)cnc2cn1)C(F)(F)F` (single isomer, unassigned) [Compound 81], the IC50 against IRAK1 is 31 nM; at IRAK4, less than 0.5 nM. For `CC(O)(c1cn2c(-c3cccc(N[C@H]4CNCC[C@@H]4F)n3)cnc2cn1)C(F)(F)F` (single isomer, unassigned) [Compound 82] the same measures were 16 nM and less than 0.5 nM. `CC1(c2cn3c(-c4cccc(N[C@H]5CNC[C@@H]5F)n4)cnc3cn2)CC1` [Compound 1, N-((3S,4S)-4-fluoropyrrolidin-3-yl)-6-(6-(1-methylcyclopropyl)imidazo[1,2-a]pyrazin-3-yl)pyridin-2-amine]: the IC50 at IRAK1 is 63 nM; at IRAK4 it was less than 0.5 nM. On the same counts, the results for `CC1(c2cn3c(-c4cccc(N[C@@H]5CCNC5)n4)cnc3cn2)CC1` [Compound 3, (R)-6-(6-(1-methylcyclopropyl)imidazo[1,2-a]pyrazin-3-yl)-N-(pyrrolidin-3-yl)pyridin-2-amine] are 88 nM and less than 0.5 nM.

Regarding `CC1(c2cn3c(-c4cccc(N[C@H]5CNCC56CC6)n4)cnc3cn2)CC1` [Compound 5, (R)-N-(6-(6-(1-methylcyclopropyl)imidazo[1,2-a]pyrazin-3-yl)pyridin-2-yl)-5-azaspiro[2.4]heptan-7-amine], the IC50 against IRAK1 was 114 nM; against IRAK4 it was less than 0.5 nM.

In the case of `FC(F)(F)C1(c2cn3c(-c4cccc(N[C@@H]5CCNC5)n4)cnc3cn2)CC1` [Compound 10, (R)-N-(pyrrolidin-3-yl)-6-(6-(1-(trifluoromethyl)cyclopropyl)imidazo[1,2-a]pyrazin-3-yl)pyridin-2-amine], at IRAK1, the IC50 is 155 nM. As for `FC(F)c1cn2c(-c3cccc(N[C@H]4CNC[C@@H]4F)n3)cnc2cn1` [Compound 16, 6-(6-(difluoromethyl)imidazo[1,2-a]pyrazin-3-yl)-N-((3S,4S)-4-fluoropyrrolidin-3-yl)pyridin-2-amine], the half-inhibitory concentration (IC50) was 60 nM on IRAK1 and less than 0.5 nM against IRAK4. With `FC(F)c1cn2c(-c3cccc(N[C@H]4CNCC[C@@H]4F)n3)cnc2cn1` [Compound 25, 6-(6-(difluoromethyl)imidazo[1,2-a]pyrazin-3-yl)-N-((3S,4S)-4-fluoropiperidin-3-yl)pyridin-2-amine], the IC50 against IRAK1 is 144 nM; against IRAK4 it was less than 0.5 nM. Consider `CC(C)(O)c1cn2c(-c3cccc(N[C@@H]4CCCNC4)n3)cnc2cn1` [Compound 30, (R)-2-(3-(6-(piperidin-3-ylamino)pyridin-2-yl)imidazo[1,2-a]pyrazin-6-yl)propan-2-ol], for which, on IRAK1, it took 58 nM to reach half-maximal inhibition (IC50). With `CC(C)(O)c1cn2c(-c3cccc(N[C@H]4CNCC[C@@H]4F)n3)cnc2cn1` [Compound 31, 2-(3-(6-(((3S,4S)-4-fluoropiperidin-3-yl)amino)pyridin-2-yl)imidazo[1,2-a]pyrazin-6-yl)propan-2-ol], the IC50 was 23 nM at IRAK1 and less than 0.5 nM on IRAK4. For `CC(C)(O)c1cn2c(-c3nc(N[C@H]4CNC[C@@H]4F)c(F)cc3F)cnc2cn1` [Compound 33, 2-(3-(3,5-difluoro-6-(((3S,4S)-4-fluoropyrrolidin-3-yl)amino)pyridin-2-yl)imidazo[1,2-a]pyrazin-6-yl)propan-2-ol] the same measures were 61 nM and less than 0.5 nM. On the same counts, the results for `CC(C)(O)c1cn2c(-c3nc(N[C@@H]4CCCNC4)c(F)cc3F)cnc2cn1` [Compound 34, (R)-2-(3-(3,5-difluoro-6-(piperidin-3-ylamino)pyridin-2-yl)imidazo[1,2-a]pyrazin-6-yl)propan-2-ol] are 47 nM and less than 0.5 nM. As for `CC(C)(O)c1cn2c(-c3nc(N[C@H]4CNCC[C@@H]4F)c(F)cc3F)cnc2cn1` [Compound 35, 2-(3-(3,5-difluoro-6-(((3S,4S)-4-fluoropiperidin-3-yl)amino)pyridin-2-yl)imidazo[1,2-a]pyrazin-6-yl)propan-2-ol], the IC50 was 45 nM at IRAK1 and less than 0.5 nM against IRAK4.

As to `FC(F)(F)COc1cn2c(-c3cccc(N[C@@H]4CCNC4)n3)cnc2cn1` [Compound 38, (R)-N-(pyrrolidin-3-yl)-6-(6-(2,2,2-trifluoroethoxy)imidazo[1,2-a]pyrazin-3-yl)pyridin-2-amine], the IC50 on IRAK1 is 92 nM; on IRAK4, less than 0.5 nM. On to `Cn1cc(-c2cn3c(-c4cccc(N[C@@H]5CCCNC5)n4)cnc3cn2)cn1` [Compound 43, (R)-6-(6-(1-methyl-1H-pyrazol-4-yl)imidazo[1,2-a]pyrazin-3-yl)-N-(piperidin-3-yl)pyridin-2-amine], for which the half-inhibitory concentration (IC50) on IRAK1 worked out at 895 nM; at IRAK4, 84 nM. Consider `F[C@H]1CNC[C@@H]1Nc1cccc(-c2cnc3cnc(C4CC4)cn23)n1` [Compound 50, 6-(6-cyclopropylimidazo[1,2-a]pyrazin-3-yl)-N-((3S,4S)-4-fluoropyrrolidin-3-yl)pyridin-2-amine], for which the IC50 against IRAK1 came out at 113 nM; on IRAK4 it was 1 nM. On the same counts, the results for `F[C@H]1CCNC[C@@H]1Nc1cccc(-c2cnc3cnc(C4CC4)cn23)n1` [Compound 51, 6-(6-cyclopropylimidazo[1,2-a]pyrazin-3-yl)-N-((3S,4S)-4-fluoropiperidin-3-yl)pyridin-2-amine] are 80 nM and 0.6 nM. Molecule `Cn1cc(-c2cn3c(-c4cccc(N[C@H]5CNC[C@@H]5F)n4)cnc3cn2)cn1` [Compound 52, N-((3S,4S)-4-fluoropyrrolidin-3-yl)-6-(6-(1-methyl-1H-pyrazol-4-yl)imidazo[1,2-a]pyrazin-3-yl)pyridin-2-amine] showed an IC50 against IRAK1 of 202 nM. The same measure, in the same setting: for `O=C1NCCN1c1cn2c(-c3cccc(N[C@H]4CNCC[C@@H]4F)n3)cnc2cn1` [Compound 118, 1-(3-(6-(((3S,4S)-4-fluoropiperidin-3-yl)amino)pyridin-2-yl)imidazo[1,2-a]pyrazin-6-yl)imidazolidin-2-one] the value was 22 nM.

The values above are taken from patent publication US12612410B2 (CHILDREN'S HOSPITAL MEDICAL CENTER, priority 2020, dated 2026).
